In US20210038607A1, “OXADIAZOLYLTHIOPHENE DERIVATIVES USEFUL AS HISTONE DEACETYLASE INHIBITORS” (Karus Therapeutics Limited, priority 2018, published 2021):

What was measured:
[1] = tested on: acetylated α-tubulin in A549 lung adenocarcinoma cells; assay: Acetylated α-tubulin in-cell western (ICW) assay; assay type: cell-based; conditions: Homo sapiens, 16 h exposure, relative to 40 μM scriptaid positive control, read-out: EC50 Ac-α-tubulin, A549 cells
Method: (§1) Acetylated α-Tubulin and Histone H3 in-Cell Western (ICW) Assays
(§2) A549 cells were maintained in DMEM (Life Technologies)+10% FBS+2 mM glutamine & penicillin (10 μg/mL) and streptomycin ([…]. 10,000 A549 cells per well were plated into 96 well tissue culture plates (Corning) and incubated at 37° C. overnight in a humidified atmosphere containing 5% CO2 prior to addition of compounds. Compounds (dissolved in 100% DMSO) were diluted into cell culture media at 2× final assay concentration. 2× compound or DMSO (negative control) were added to cells (final DMSO concentration 0.4%). Untreated control wells received media. For acetylated α-tubulin assays, 40 μM scriptaid was used as a positive control. For acetylated histone H3 assays, 40 μM Trichostatin A (TSA) was used as a positive control. Cells were exposed to compound at 37° C. in a humidified atmosphere containing 5% CO2 for 16 h.
(§3) Measurement of the impact of compounds on levels of acetylated α-tubulin and histone H3 was performed using specific antibodies and near-infrared immunofluorescent dyes. Briefly, media was removed from wells of assay plates. Cells were washed once with PBS and fixed in 3.7% formaldehyde PBS solution at room temperature for 20 min. Cells were then permeabilised by washing 5 times in 0.1% triton-X-100 PBS at room temperature with gentle agitation for 5 min per wash. Non-specific antibody staining was blocked by the addition of Odyssey blocking buffer (Li-Cor) for 1.5 h at room temperature with gentle agitation. Cells were then incubated with primary antibody (mouse monoclonal anti-acetylated α-tubulin (clone 6-11B-1), Sigma or rabbit polyclonal anti-acetylated histone H3, Millipore) diluted in Odyssey blocking buffer at 4° C. with gentle shaking overnight (no antibody control and secondary antibody only wells were incubated with Odyssey blocking buffer only). Cells were washed five times with 0.1% tween PBS and labelled with secondary antibody (IR dye 800CW-conjugated goat anti mouse IgG or -goat anti rabbit IgG, Li-Cor) and cell stains Sapphire700 (Li-Cor) and Draq5 (Biostatus) diluted in Odyssey blocking buffer at room temperature in the dark with gentle shaking for 1 h (no antibody control wells were incubated with Odyssey blocking buffer only and secondary antibody only with diluted secondary antibody but no cell stains). Cells were washed with 0.1% Tween PBS five times and scanned using a Li-Cor Odyssey SA plate reader in 700 and 800 nm channels. Acetylated α-tubulin or histone H3 signal was normalised to cell number using the cell stain signal. Percentage increase in acetylated α-tubulin or histone H3 after compound treatment over the mean of DMSO treated controls, relative to scriptaid and TSA positive controls, respectively was calculated. EC50 values were calculated using GraphPad Prism software and nonlinear regression with 0% bottom and 100% top constraints.

[2] = tested on: acetylated histone H3 in A549 lung adenocarcinoma cells; assay: Acetylated histone H3 in-cell western (ICW) assay; assay type: cell-based; conditions: Homo sapiens, 16 h exposure, relative to 40 μM Trichostatin A positive control, read-out: EC50 Ac-histone H3, A549 cells
Method: as §1, §2, §3

SMILES | EC50 [1] | EC50 [2]
O=C(c1cnnc(N(Cc2ccc(-c3noc(C(F)(F)F)n3)s2)c2cnccn2)c1)N1CCC1 [Example FS, 5-(Azetidine-1-carbonyl)-N-(pyrazin-2-yl)-N-({5-[5-(trifluoromethyl)-1,2,4-oxadiazol-3-yl]thiophen-2-yl}methyl)pyridazin-3-amine] | ≤ 1 µM | ≥ 10 µM
FC(F)(F)c1nc(-c2ccc(CN(c3cnccn3)c3cc(CN4CCOCC4)ccn3)s2)no1 [Example GI, N-{4-[(Morpholin-4-yl)methyl]pyridin-2-yl}-N-({5-[5-(trifluoromethyl)-1,2,4-oxadiazol-3-yl]thiophen-2-yl}methyl)pyrazin-2-amine] | ≤ 1 µM | ≥ 10 µM
FC(F)(F)c1cnnc(N(Cc2ccc(-c3noc(C(F)(F)F)n3)s2)c2cccnn2)c1 [Example ER, N-(Pyridazin-3-yl)-5-(trifluoromethyl)-N-({5-[5-(trifluoromethyl)-1,2,4-oxadiazol-3-yl]thiophen-2-yl}methyl)pyridazin-3-amine] | ≥ 10 µM | ≥ 10 µM
O=C(c1ccc(N(Cc2ccc(-c3noc(C(F)(F)F)n3)s2)c2cnccn2)nn1)N1CC[S+]([O-])CC1 [Example FD, 4-{6-[(Pyrazin-2-yl)({5-[5-(trifluoromethyl)-1,2,4-oxadiazol-3-yl]thiophen-2-yl}methyl)amino]pyridazine-3-carbonyl}-1lambda4-thiomorpholin-1-one] | ≤ 1 µM | ≥ 10 µM
CN(C)C1CN(C(=O)c2cnnc(N(Cc3ccc(-c4noc(C(F)(F)F)n4)s3)c3cnccn3)c2)C1 [Example FX, 5-[3-(Dimethylamino)azetidine-1-carbonyl]-N-(pyrazin-2-yl)-N-({5-[5-(trifluoromethyl)-1,2,4-oxadiazol-3-yl]thiophen-2-yl}methyl)pyridazin-3-amine] | ≤ 1 µM | ≥ 10 µM
COc1cncc(N(Cc2ccc(-c3noc(C(F)(F)F)n3)s2)c2cc(C(F)(F)F)cnn2)n1 [Example EN, N-(6-Methoxypyrazin-2-yl)-5-(trifluoromethyl)-N-({5-[5-(trifluoromethyl)-1,2,4-oxadiazol-3-yl]thiophen-2-yl}methyl)pyridazin-3-amine] | ≤ 1 µM | ≥ 10 µM
O=C(c1cnnc(N(Cc2ccc(-c3noc(C(F)(F)F)n3)s2)c2cnccn2)c1)N1C[C@H]2C[C@@H]1CO2 [Example FW, 5-[(1R,4R)-2-Oxa-5-azabicyclo[2.2.1]heptane-5-carbonyl]-N-(pyrazin-2-yl)-N-({5-[5-(trifluoromethyl)-1,2,4-oxadiazol-3-yl]thiophen-2-yl}methyl)pyridazin-3-amine] | ≤ 1 µM | ≥ 10 µM
O=C(c1ccc(N(Cc2ccc(-c3noc(C(F)(F)F)n3)s2)c2cnccn2)nn1)N1CCC12COC2 [Example FH, 6-{6-Oxa-1-azaspiro[3.3]heptane-1-carbonyl}-N-(pyrazin-2-yl)-N-({5-[5-(trifluoromethyl)-1,2,4-oxadiazol-3-yl]thiophen-2-yl}methyl)pyridazin-3-amine] | ≤ 1 µM | ≥ 10 µM
NC(=O)c1ccc(N(Cc2ccc(-c3noc(C(F)(F)F)n3)s2)c2cnccn2)nn1 [Example DQ, 6-[(Pyrazin-2-yl)({5-[5-(trifluoromethyl)-1,2,4-oxadiazol-3-yl]thiophen-2-yl}methyl)amino]pyridazine-3-carboxamide] | ≤ 1 µM | ≥ 10 µM
N#Cc1cnnc(N(Cc2ccc(-c3noc(C(F)(F)F)n3)s2)c2cnccn2)c1 [Example EE, 6-[(Pyrazin-2-yl)({5-[5-(trifluoromethyl)-1,2,4-oxadiazol-3-yl]thiophen-2-yl}methyl)amino]pyridazine-4-carbonitrile] | ≤ 1 µM | ≥ 10 µM
O=C(c1nccnc1N(Cc1ccc(-c2noc(C(F)(F)F)n2)s1)c1cnccn1)N1CCC1 [Example GP, 3-(Azetidine-1-carbonyl)-N-(pyrazin-2-yl)-N-({5-[5-(trifluoromethyl)-1,2,4-oxadiazol-3-yl]thiophen-2-yl}methyl)pyrazin-2-amine] | 1 to 10 µM | ≥ 10 µM
COC1CN(C(=O)c2cnnc(N(Cc3ccc(-c4noc(C(F)(F)F)n4)s3)c3cnccn3)c2)C1 [Example DZ, 5-(3-Methoxyazetidine-1-carbonyl)-N-(pyrazin-2-yl)-N-({5-[5-(trifluoromethyl)-1,2,4-oxadiazol-3-yl]thiophen-2-yl}methyl)pyridazin-3-amine] | ≤ 1 µM | ≥ 10 µM
O=C(c1cnnc(N(Cc2ccc(-c3noc(C(F)(F)F)n3)s2)c2cnccn2)c1)N1CCOCC1 [Example EB, 5-(Morpholine-4-carbonyl)-N-(pyrazin-2-yl)-N-({5-[5-(trifluoromethyl)-1,2,4-oxadiazol-3-yl]thiophen-2-yl}methyl)pyridazin-3-amine] | ≤ 1 µM | ≥ 10 µM
O=C(c1ccc(N(Cc2ccc(-c3noc(C(F)(F)F)n3)s2)c2cnccn2)nn1)N1CCOCC1 [Example DS, 6-(Morpholine-4-carbonyl)-N-(pyrazin-2-yl)-N-({5-[5-(trifluoromethyl)-1,2,4-oxadiazol-3-yl]thiophen-2-yl}methyl)pyridazin-3-amine] | ≤ 1 µM | ≥ 10 µM
FC(F)(F)c1nc(-c2ccc(CN(c3cnccn3)c3cnccn3)s2)no1 [Example BA, N-(Pyrazin-2-yl)-N-({5-[5-(trifluoromethyl)-1,2,4-oxadiazol-3-yl]thiophen-2-yl}methyl)pyrazin-2-amine] | ≤ 1 µM | ≥ 10 µM
O=C(c1cnnc(N(Cc2ccc(-c3noc(C(F)(F)F)n3)s2)c2cnccn2)c1)N1C[C@@H]2C[C@H]1CO2 [Example FV, 5-[(1S,4S)-2-Oxa-5-azabicyclo[2.2.1]heptane-5-carbonyl]-N-(pyrazin-2-yl)-N-({5-[5-(trifluoromethyl)-1,2,4-oxadiazol-3-yl]thiophen-2-yl}methyl)pyridazin-3-amine] | ≤ 1 µM | ≥ 10 µM
Cc1cnc(N(Cc2ccc(-c3noc(C(F)(F)F)n3)s2)c2cnccn2)cn1 [Example BH, 5-Methyl-N-(pyrazin-2-yl)-N-({5-[5-(trifluoromethyl)-1,2,4-oxadiazol-3-yl]thiophen-2-yl}methyl)pyrazin-2-amine] | 1 to 10 µM | ≥ 10 µM
COC1CN(C(=O)c2ccc(N(Cc3ccc(-c4noc(C(F)(F)F)n4)s3)c3cnccn3)nn2)C1 [Example DR, 6-(3-Methoxyazetidine-1-carbonyl)-N-(pyrazin-2-yl)-N-({5-[5-(trifluoromethyl)-1,2,4-oxadiazol-3-yl]thiophen-2-yl}methyl)pyridazin-3-amine] | ≤ 1 µM | ≥ 10 µM
O=C(c1cnnc(N(Cc2ccc(-c3noc(C(F)(F)F)n3)s2)c2cnccn2)c1)N1CC(C(F)(F)F)C1 [Example GJ, N-(Pyrazin-2-yl)-N-({5-[5-(trifluoromethyl)-1,2,4-oxadiazol-3-yl]thiophen-2-yl}methyl)-5-[3-(trifluoromethyl)azetidine-1-carbonyl]pyridazin-3-amine] | ≤ 1 µM | ≥ 10 µM
O=C(c1ccc(N(Cc2ccc(-c3noc(C(F)(F)F)n3)s2)c2cnccn2)nn1)N1C[C@@H]2C[C@H]1CO2 [Example FE, 6-[(1S,4S)-2-Oxa-5-azabicyclo[2.2.1]heptane-5-carbonyl]-N-(pyrazin-2-yl)-N-({5-[5-(trifluoromethyl)-1,2,4-oxadiazol-3-yl]thiophen-2-yl}methyl)pyridazin-3-amine] | 1 to 10 µM | ≥ 10 µM
